Data: ChEMBL document CHEMBL1909046, “DrugMatrix in vitro pharmacology data”
pIC50, pKi: −log10 of the molar value.

Assays:
[1] = biological target: T1, Cytochrome P450 1A2 (Homo sapiens, UniProt P05177); conditions: bti-tn-5b1-4; also: in other assays of this panel Not Active means under 50% inhibition at 10 µM
T1 sequence (P05177 whole entry): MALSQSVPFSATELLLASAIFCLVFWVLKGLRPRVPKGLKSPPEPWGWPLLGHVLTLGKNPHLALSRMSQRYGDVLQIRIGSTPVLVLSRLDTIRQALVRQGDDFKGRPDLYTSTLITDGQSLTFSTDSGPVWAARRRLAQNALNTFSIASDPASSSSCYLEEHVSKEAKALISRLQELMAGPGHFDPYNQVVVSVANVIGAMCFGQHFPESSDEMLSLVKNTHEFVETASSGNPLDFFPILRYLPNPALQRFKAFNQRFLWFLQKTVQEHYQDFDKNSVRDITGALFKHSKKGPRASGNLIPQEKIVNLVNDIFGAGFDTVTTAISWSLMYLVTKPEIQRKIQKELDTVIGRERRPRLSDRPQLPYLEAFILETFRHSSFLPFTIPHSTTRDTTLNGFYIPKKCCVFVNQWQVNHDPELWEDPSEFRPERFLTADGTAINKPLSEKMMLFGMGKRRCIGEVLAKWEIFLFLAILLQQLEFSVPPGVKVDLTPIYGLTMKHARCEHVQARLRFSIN

[2] = biological target: 5-hydroxytryptamine receptor 2B (Homo sapiens, UniProt P41595); assay type: cell membranes, CHO-K1, Membrane; conditions: for IC50: cho-k1; for pIC50: read-out: IC50; for pKi: read-out: Ki; as to all read-outs here: in other assays of this panel Not Active means under 50% inhibition at 10 µM
[3] = biological target: Sodium-dependent noradrenaline transporter (Homo sapiens, UniProt P23975); experiment: DRUGMATRIX: Norepinephrine Transporter radioligand binding (ligand: [125I] RTI-55); assay type: cell membranes, MDCK, Membrane; conditions: Not Active = under 50% inhibition at 10 µM; for IC50: mdck
[4] = biological target: Cytochrome P450 2C19 (Homo sapiens, UniProt P33261); conditions: bti-tn-5b1-4; also: in other assays of this panel Not Active means under 50% inhibition at 10 µM
[5] = biological target: Cytochrome P450 2E1 (Homo sapiens, UniProt P05181); conditions: bti-tn-5b1-4; also: in other assays of this panel Not Active means under 50% inhibition at 10 µM
[6] = biological target: T2, Glucocorticoid receptor (Homo sapiens, UniProt P04150); conditions: hela s3; also: in other assays of this panel Not Active means under 50% inhibition at 10 µM
T2 sequence (P04150 whole entry): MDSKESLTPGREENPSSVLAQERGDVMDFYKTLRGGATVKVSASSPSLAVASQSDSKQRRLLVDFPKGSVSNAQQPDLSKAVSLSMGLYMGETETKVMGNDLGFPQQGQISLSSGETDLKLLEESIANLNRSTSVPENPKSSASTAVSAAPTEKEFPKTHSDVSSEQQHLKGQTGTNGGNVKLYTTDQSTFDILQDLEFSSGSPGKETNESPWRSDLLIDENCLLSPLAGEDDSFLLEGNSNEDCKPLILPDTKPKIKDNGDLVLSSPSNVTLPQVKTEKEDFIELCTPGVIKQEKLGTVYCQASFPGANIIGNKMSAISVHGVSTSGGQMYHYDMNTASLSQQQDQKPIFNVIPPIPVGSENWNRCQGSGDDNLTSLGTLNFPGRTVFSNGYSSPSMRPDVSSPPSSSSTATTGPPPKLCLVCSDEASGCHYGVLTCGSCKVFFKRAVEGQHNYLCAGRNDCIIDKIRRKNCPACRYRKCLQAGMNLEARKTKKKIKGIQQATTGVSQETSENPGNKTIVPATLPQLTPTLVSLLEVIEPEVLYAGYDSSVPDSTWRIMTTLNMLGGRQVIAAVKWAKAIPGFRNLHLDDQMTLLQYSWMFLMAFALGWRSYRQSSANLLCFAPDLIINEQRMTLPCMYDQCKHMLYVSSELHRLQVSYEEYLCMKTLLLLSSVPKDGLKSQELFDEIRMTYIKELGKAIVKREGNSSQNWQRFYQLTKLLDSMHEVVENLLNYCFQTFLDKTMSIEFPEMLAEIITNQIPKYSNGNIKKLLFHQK

[7] = biological target: T3, Progesterone receptor (Bos taurus, UniProt Q690N0); experiment: DRUGMATRIX: Progesterone radioligand binding (ligand: [3H] R-5020); assay type: tissue-based, Uterus; conditions: Not Active = under 50% inhibition at 10 µM; for pIC50: read-out: IC50; for pKi: read-out: Ki
T3 sequence (Q690N0 whole entry): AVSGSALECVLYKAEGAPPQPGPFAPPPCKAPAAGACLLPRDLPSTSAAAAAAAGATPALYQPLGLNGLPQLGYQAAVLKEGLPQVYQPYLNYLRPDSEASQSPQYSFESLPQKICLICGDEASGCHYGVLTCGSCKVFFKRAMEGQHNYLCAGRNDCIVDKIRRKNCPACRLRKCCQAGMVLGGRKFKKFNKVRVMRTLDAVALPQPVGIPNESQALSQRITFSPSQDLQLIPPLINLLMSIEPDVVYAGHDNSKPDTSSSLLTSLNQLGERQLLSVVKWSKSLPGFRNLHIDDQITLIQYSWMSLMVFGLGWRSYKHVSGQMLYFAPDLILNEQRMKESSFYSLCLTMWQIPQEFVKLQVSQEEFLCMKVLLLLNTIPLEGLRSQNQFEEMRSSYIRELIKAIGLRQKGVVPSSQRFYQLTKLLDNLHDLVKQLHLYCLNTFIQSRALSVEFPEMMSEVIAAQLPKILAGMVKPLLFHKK

Chain of Cytochrome P450 2E1 (P05181 whole entry): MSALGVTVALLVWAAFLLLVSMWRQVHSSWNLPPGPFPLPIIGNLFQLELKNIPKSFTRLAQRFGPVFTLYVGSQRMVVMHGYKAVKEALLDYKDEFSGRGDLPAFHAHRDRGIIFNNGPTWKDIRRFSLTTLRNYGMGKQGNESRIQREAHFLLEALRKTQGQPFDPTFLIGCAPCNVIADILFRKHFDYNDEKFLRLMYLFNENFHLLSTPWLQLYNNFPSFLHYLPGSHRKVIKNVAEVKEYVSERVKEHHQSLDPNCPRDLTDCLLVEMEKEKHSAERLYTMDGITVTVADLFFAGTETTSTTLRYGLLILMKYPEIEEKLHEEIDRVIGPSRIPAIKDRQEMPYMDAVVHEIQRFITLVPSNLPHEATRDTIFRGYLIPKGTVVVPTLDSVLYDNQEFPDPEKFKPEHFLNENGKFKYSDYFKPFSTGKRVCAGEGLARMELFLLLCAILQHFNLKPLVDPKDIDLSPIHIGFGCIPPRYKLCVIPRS
Chain of 5-hydroxytryptamine receptor 2B (P41595 whole entry): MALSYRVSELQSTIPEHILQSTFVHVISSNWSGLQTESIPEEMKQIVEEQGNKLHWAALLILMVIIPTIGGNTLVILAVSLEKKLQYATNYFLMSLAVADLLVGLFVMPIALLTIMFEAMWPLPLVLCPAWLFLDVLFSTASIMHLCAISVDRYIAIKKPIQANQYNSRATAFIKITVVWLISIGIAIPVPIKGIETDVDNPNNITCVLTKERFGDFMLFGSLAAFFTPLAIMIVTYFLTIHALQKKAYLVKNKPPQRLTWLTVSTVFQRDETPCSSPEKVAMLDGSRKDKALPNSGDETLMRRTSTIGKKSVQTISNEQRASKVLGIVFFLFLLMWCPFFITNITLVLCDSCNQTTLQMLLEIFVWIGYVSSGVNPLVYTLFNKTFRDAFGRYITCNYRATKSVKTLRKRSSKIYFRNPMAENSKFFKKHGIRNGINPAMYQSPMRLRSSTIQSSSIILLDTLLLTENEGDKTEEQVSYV
Chain of Sodium-dependent noradrenaline transporter (P23975 whole entry): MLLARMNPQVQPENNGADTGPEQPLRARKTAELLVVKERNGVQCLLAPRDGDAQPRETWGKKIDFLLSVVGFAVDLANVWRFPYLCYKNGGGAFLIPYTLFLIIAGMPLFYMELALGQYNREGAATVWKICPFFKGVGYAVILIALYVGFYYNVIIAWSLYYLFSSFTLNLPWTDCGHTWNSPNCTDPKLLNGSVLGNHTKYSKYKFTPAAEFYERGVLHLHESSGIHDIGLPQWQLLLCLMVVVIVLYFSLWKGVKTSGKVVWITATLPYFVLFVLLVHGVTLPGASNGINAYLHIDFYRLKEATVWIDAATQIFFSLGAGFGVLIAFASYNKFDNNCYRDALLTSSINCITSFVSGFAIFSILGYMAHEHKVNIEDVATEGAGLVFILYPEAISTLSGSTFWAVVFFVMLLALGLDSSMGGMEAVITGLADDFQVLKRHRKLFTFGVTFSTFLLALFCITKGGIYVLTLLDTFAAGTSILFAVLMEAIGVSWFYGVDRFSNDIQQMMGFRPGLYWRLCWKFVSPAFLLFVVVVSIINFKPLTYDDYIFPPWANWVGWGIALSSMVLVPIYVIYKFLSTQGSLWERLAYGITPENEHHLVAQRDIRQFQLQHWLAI
Chain of Cytochrome P450 2C19 (P33261 whole entry): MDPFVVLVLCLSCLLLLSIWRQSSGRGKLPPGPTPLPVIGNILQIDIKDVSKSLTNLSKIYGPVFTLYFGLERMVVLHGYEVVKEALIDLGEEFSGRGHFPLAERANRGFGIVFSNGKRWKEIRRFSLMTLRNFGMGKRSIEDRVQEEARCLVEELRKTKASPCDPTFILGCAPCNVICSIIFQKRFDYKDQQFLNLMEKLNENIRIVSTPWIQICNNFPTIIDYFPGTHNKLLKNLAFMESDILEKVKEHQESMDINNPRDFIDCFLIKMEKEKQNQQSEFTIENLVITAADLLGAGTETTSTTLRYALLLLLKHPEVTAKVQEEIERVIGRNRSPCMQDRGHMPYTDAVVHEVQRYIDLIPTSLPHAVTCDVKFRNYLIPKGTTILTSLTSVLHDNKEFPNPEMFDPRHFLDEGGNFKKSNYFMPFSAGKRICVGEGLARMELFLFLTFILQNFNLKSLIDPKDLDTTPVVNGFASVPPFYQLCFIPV

| SMILES | IC50 [1] | Ki [1] | IC50 [2] | IC50 [3] | IC50 [4] | Ki [4] | IC50 [5] | Ki [5] | IC50 [6] | IC50 [7] | pIC50 [7] | pKi [7] | pIC50 [2] | pKi [2] | pIC50 ([3]; read-out: IC50) | pKi ([3]; read-out: Ki) |
| --- | --- | --- | --- | --- | --- | --- | --- | --- | --- | --- | --- | --- | --- | --- | --- | --- |
| CC#C[C@]1(O)CC[C@H]2[C@@H]3CCC4=CC(=O)CCC4=C3[C@@H](c3ccc(N(C)C)cc3)C[C@@]21C [MIFEPRISTONE] | Not Active | Not Active | Not Active | Not Active | Not Active | Not Active | Not Active | Not Active | – | – | – | – | – | – | – | – |
| Cc1cc2c(s1)Nc1ccccc1N=C2N1CCN(C)CC1 [OLANZAPINE] | Not Active | Not Active | – | Not Active | Not Active | Not Active | Not Active | Not Active | Not Active | Not Active | – | – | – | – | – | – |
| Cc1cn([C@H]2C=C[C@@H](CO)O2)c(=O)[nH]c1=O [STAVUDINE] | Not Active | Not Active | Not Active | Not Active | Not Active | Not Active | Not Active | Not Active | – | Not Active | – | – | – | – | – | – |
| C#C[C@]1(O)CC[C@H]2[C@@H]3[C@H](C)CC4=C(CCC(=O)C4)[C@H]3CC[C@@]21C [TIBOLONE] | Not Active | Not Active | Not Active | Not Active | – | – | Not Active | Not Active | – | – | 6.66 | 7.54 | – | – | – | – |
| CC(O)C(=O)O (configuration not stated) [LACTIC ACID] | Not Active | Not Active | Not Active | Not Active | Not Active | Not Active | Not Active | Not Active | – | Not Active | – | – | – | – | – | – |
| CCN(CC)C(=S)SSC(=S)N(CC)CC | – | – | – | – | Not Active | Not Active | Not Active | Not Active | Not Active | Not Active | – | – | – | – | – | – |
| CNCCCC12CCC(c3ccccc31)c1ccccc12 [MAPROTILINE] | – | – | – | – | – | – | – | – | Not Active | Not Active | – | – | – | – | – | – |
| Cc1cccc(C)c1NC(=O)C(C)N (configuration not stated) [TOCAINIDE] | Not Active | Not Active | Not Active | Not Active | Not Active | Not Active | Not Active | Not Active | Not Active | – | – | – | – | – | – | – |
| CCOc1cc(N)c(Cl)cc1C(=O)NCC1CN(Cc2ccc(F)cc2)CCO1 (configuration not stated) [MOSAPRIDE] | – | – | – | Not Active | – | – | Not Active | Not Active | Not Active | Not Active | – | – | 6.53 | 6.73 | – | – |
| O=C(c1ccccc1)c1ccc2n1CCC2C(=O)O (configuration not stated) [KETOROLAC] | Not Active | Not Active | Not Active | Not Active | Not Active | Not Active | Not Active | Not Active | – | Not Active | – | – | – | – | – | – |
| Oc1ccc(/C=C/c2cc(O)cc(O)c2)cc1 [RESVERATROL] | – | – | Not Active | – | – | – | Not Active | Not Active | – | – | – | – | – | – | 5.64 | 5.64 |
| Cc1[nH]c(=O)c(C#N)cc1-c1ccncc1 [MILRINONE] | Not Active | Not Active | Not Active | Not Active | – | – | Not Active | Not Active | – | – | – | – | – | – | – | – |
| CCN(CC)CCNC(=O)c1cc(Cl)c(N)cc1OC [METOCLOPRAMIDE] | Not Active | Not Active | – | Not Active | Not Active | Not Active | Not Active | Not Active | – | Not Active | – | – | 6.20 | 6.40 | – | – |
| CN(C)CCC=C1c2ccccc2COc2ccccc21 [DOXEPIN] | Not Active | Not Active | – | – | Not Active | Not Active | Not Active | Not Active | Not Active | Not Active | – | – | – | – | – | – |
| C[N+]1(C)[C@@H]2C[C@@H](OC(=O)[C@H](CO)c3ccccc3)C[C@H]1[C@@H]1O[C@@H]12.[Br-] [METHSCOPOLAMINE BROMIDE] | Not Active | Not Active | Not Active | – | Not Active | Not Active | Not Active | Not Active | Not Active | Not Active | – | – | – | – | – | – |
| Cc1nnc(NS(=O)(=O)c2ccc(N)cc2)s1 [SULFAMETHIZOLE] | Not Active | Not Active | Not Active | Not Active | Not Active | Not Active | Not Active | Not Active | – | Not Active | – | – | – | – | – | – |
| Cc1ccc(S(=O)(=O)NC(=O)NN2CCCCCC2)cc1 [TOLAZAMIDE] | – | – | Not Active | Not Active | – | – | – | – | Not Active | Not Active | – | – | – | – | – | – |
| CCC(C)(C)C(=O)O[C@H]1C[C@@H](C)C=C2C=C[C@H](C)[C@H](CC[C@@H]3C[C@@H](O)CC(=O)O3)[C@H]21 [SIMVASTATIN] | – | – | Not Active | – | – | – | – | – | Not Active | Not Active | – | – | – | – | – | – |
| OC[C@@H](O)[C@@H](O)[C@H](O)[C@H](O)CO [MANNITOL] | Not Active | Not Active | Not Active | Not Active | Not Active | Not Active | Not Active | Not Active | – | Not Active | – | – | – | – | – | – |
| CCN(CC)N=O [N-NITROSODIETHYLAMINE] | Not Active | Not Active | Not Active | Not Active | Not Active | Not Active | Not Active | Not Active | – | Not Active | – | – | – | – | – | – |
| CC(=O)O[C@]1(C(C)=O)CC[C@H]2[C@@H]3C[C@H](C)C4=CC(=O)CC[C@]4(C)[C@H]3CC[C@@]21C [MEDROXYPROGESTERONE ACETATE] | Not Active | Not Active | Not Active | Not Active | Not Active | Not Active | Not Active | Not Active | – | – | 8.65 | 9.53 | – | – | – | – |
| CN1C[C@H](CNC(=O)OCc2ccccc2)C[C@@H]2c3cccc4c3c(cn4C)C[C@H]21 [METERGOLINE] | Not Active | Not Active | – | – | – | – | Not Active | Not Active | Not Active | Not Active | – | – | – | – | – | – |
| CC(Cl)(Cl)Cl [TRICHLOROETHANE] | Not Active | Not Active | Not Active | Not Active | Not Active | Not Active | Not Active | Not Active | – | Not Active | – | – | – | – | – | – |
| C1CCN2C[C@@H]3C[C@@H](CN4CCCC[C@@H]34)[C@H]2C1 [SPARTEINE] | – | – | Not Active | Not Active | – | – | – | – | Not Active | Not Active | – | – | – | – | – | – |
